Measured values taken from patent US6645983B1, “Pharmaceutical compositions comprising 4-quinolones for treating cancers” (Laboratoire L. Lafon, priority 1999, dated 2003).

Assays:
SW1088 = assay: MTT test, cytotoxic activity on non-clonogenic cell lines; assay type: cell-based; details: Homo sapiens, 10^−5 M, 72 hours of incubation, control condition = 100%, mean value, read-out: mean optical density as percentage of control, SW1088
Experimental: (§1) The principle of the MTT test is based on the mitochondrial reduction, by the metabolically active live cells, of the yellow-colored product MTT (3-(4,5-dimethylthiazol-2-yl)-2,5-diphenyltetrazolium bromide) to a blue-colored product, formazan. The amount of formazan thus obtained is directly proportional to the amount of live cells present in the culture well(s). This amount of formazan is measured by spectrophotometry.
(§2) The cell lines are maintained as a monolayer culture at 37° C. in stoppered culture dishes containing MEM 25 MM HEPES (Minimum Essential Medium) base medium. This medium is suited to the growth of a range of various mammalian diploid or primary cells. This medium is then supplemented with:
(§3) The 12 human cancer cell lines which were used were obtained from the American Type Culture Collection (ATCC, Rockville, Md., USA). These 12 cell lines are:
SW1088 (code ATCC: HTB-12) which is an astro-cytoma,
(§4) Experimentally, 100 μl of a cell suspension containing 20 000 to 50 000 (depending on the cell type used) cells/ml of culture medium are inoculated -in 96-well flat-bottomed multi-well plates and are left to stand in an incubator at 37° C., 5% CO2 and 70% humidity. After an incubation time of 24 hours, the culture medium is replaced with 100 μl of fresh medium containing either the various test compounds—at concentrations varying from 10^−5 to 10^−10 M—or the solvent having served for dissolving the products to be tested (control condition). […] The microplates are thus incubated for 3 hours at 37° C., then centrifuged for 10 minutes at 400 g. The yellowish solution of MTT is removed and the blue formazan crystals formed in the cell region are dissolved in 100 μl or DMSO. The microplates are then shaken for 5 minutes. […] Software incorporated in the spectrophotometer calculates the average optical density values and the standard deviation (SD) and standard error of mean (SEM) values.

[1] = Determination of the maximum tolerated dose (MTD); details: B6D2F1/Jico, mouse, in vivo, ip; single intraperitoneal administration, doses 2.5 to 160 mg/kg, survival over 14 days
Experimental: The evaluation of the maximum tolerated dose was performed on 4- to 6-week-old B6D2F1/Jico mice. The compounds were administered intraperitoneally at increasing doses ranging from 2.5 to 160 mg/kg. The value of the MTD (expressed in mg/kg) is determined from the observation of the survival rate of the animals over a 14-day period after a single administration of the product under consideration. The change in weight of the animals is also monitored during this period. When the MTD value is greater than 160 mg/kg, the MTD value is considered as being 160 mg/kg by default.

T24 = assay: MTT test, cytotoxic activity on non-clonogenic cell lines; assay type: cell-based; details: Homo sapiens, T-24; 10^−5 M, 72 hours of incubation, control condition = 100%, mean value; read-out: mean optical density as percentage of control, T24
Experimental: as §1, §2, §3
(§5) J82 (code ATCC: HTB-1) and T24 (code ATCC: HTB-4) which are two bladder cancers,
as §4

J82 = assay: as above; assay type: cell-based; details: Homo sapiens, 10^−5 M, 72 hours of incubation, control condition = 100%, mean value, read-out: mean optical density as percentage of control, J82
Experimental: as §1, §2, §3, §5, §4

PC-3 = assay: as above; assay type: cell-based; details: Homo sapiens, 10^−5 M, 72 hours of incubation, control condition = 100%, mean value, read-out: mean optical density as percentage of control, PC-3
Experimental: as §1, §2, §3, §4

T-47D = assay: as above; assay type: cell-based; details: Homo sapiens, T47D; 10^−5 M, 72 hours of incubation, control condition = 100%, mean value; read-out: mean optical density as percentage of control, T-47D
Experimental: as §1, §2, §3, §4

U-373MG = assay: as above; assay type: cell-based; details: Homo sapiens, U373 MG; 10^−5 M, 72 hours of incubation, control condition = 100%, mean value; read-out: mean optical density as percentage of control, U-373MG
Experimental: as §1, §2, §3, §4

A549 = assay: as above; assay type: cell-based; details: Homo sapiens, 10^−5 M, 72 hours of incubation, control condition = 100%, mean value, read-out: mean optical density as percentage of control, A549
Experimental: as §1, §2, §3, §4

MCF7 = assay: as above; assay type: cell-based; details: Homo sapiens, 10^−5 M, 72 hours of incubation, control condition = 100%, mean value, read-out: mean optical density as percentage of control, MCF7
Experimental: as §1, §2, §3, §4

HCT-15 = assay: as above; assay type: cell-based; details: Homo sapiens, 10^−5 M, 72 hours of incubation, control condition = 100%, mean value, read-out: mean optical density as percentage of control, HCT-16
Experimental: as §1, §2, §3, §4

LoVo = assay: as above; assay type: cell-based; details: Homo sapiens, 10^−5 M, 72 hours of incubation, control condition = 100%, mean value, read-out: mean optical density as percentage of control, LoVo
Experimental: as §1, §2, §3, §4

A-427 = assay: as above; assay type: cell-based; details: Homo sapiens, 10^−5 M, 72 hours of incubation, control condition = 100%, mean value, read-out: mean optical density as percentage of control, A-427
Experimental: as §1, §2, §3, §4

U-87MG = assay: as above; assay type: cell-based; details: Homo sapiens, U-87 MG; 10^−5 M, 72 hours of incubation, control condition = 100%, mean value; read-out: mean optical density as percentage of control, U-87MG
Experimental: as §1, §2, §3, §4

| Compound | viability at 10 µM (SW1088) | MTD at 14 day [1] | viability at 10 µM (T24) | viability at 10 µM (J82) | viability at 10 µM (PC-3) | viability at 10 µM (T-47D) | viability at 10 µM (U-373MG) | viability at 10 µM (A549) | viability at 10 µM (MCF7) | viability at 10 µM (HCT-15) | viability at 10 µM (LoVo) | viability at 10 µM (A-427) | viability at 10 µM (U-87MG) |
| --- | --- | --- | --- | --- | --- | --- | --- | --- | --- | --- | --- | --- | --- |
| CCN(CC)C(=O)Cn1cc(-c2ccc(OC)cc2)c(=O)c2c(OC)ccc(OC)c21 [CRL8380, N,N-Diethyl-2-[5,8-dimethoxy-3-(4-methoxyphenyl)-4-oxo-1,4-dihydro-1-quinolinyl]acetamide] | 100% | > 160 mg/kg | 94.9% | 98.9% | 102% | 88.1% | 101% | 95% | 102% | 103% | 108% | 89.3% | 87.5% |
| CCOC(=O)Cn1cc(-c2ccc(OC)cc2)c(=O)c2c(OC)ccc(OC)c21 [CRL8381, Ethyl 2-[5,8-dimethoxy-3-(4-methoxyphenyl)-4-oxo-1,4-dihydro-1-quinolinyl]acetate] | 55.9% | > 160 mg/kg | 83.2% | 90.9% | 79.1% | 92.6% | 91.8% | 73.8% | 67.2% | 90.5% | 105% | 84.2% | 48.1% |
| COc1ccc(-c2cn(CCN(C)C)c3c(OC)ccc(OC)c3c2=O)cc1 [CRL8382, N-[3-(Dimethylamino)ethyl]-5,8-dimethoxy-3-(4-methoxyphenyl)-1,4-dihydro-4-quinolinone] | 118% | > 160 mg/kg | 99.7% | 95.6% | 100% | 94.7% | 101% | 90.4% | 93% | 93.1% | 96.7% | 89.2% | 59.2% |
| COc1ccc(OC)c2c1c(=O)c(-c1ccccc1)cn2C [CRL8383, 5,8-Dimethoxy-1-methyl-3-phenyl-1,4-dihydro-4-quinolinone] | 75.9% | > 160 mg/kg | 180% | 94.6% | 88.3% | 75.3% | 83.5% | 84.1% | 85% | 100% | 89.1% | 92.1% | 69.5% |
| COc1ccc(-c2c[nH]c3c(OC)ccc(O)c3c2=O)cc1 [CRL8391, 5-Hydroxy-8-methoxy-3-(4-methoxyphenyl)-1,4-dihydro-4-quinolinone] | 92.5% | > 160 mg/kg | 101% | 99.6% | 80% | 99.3% | 93.5% | 88.3% | 97.3% | 80.6% | 87.2% | 80.5% | 74% |
| COc1ccc(-c2cn(C)c3c(OC)ccc(O)c3c2=O)cc1 [CRL8392, 5-Hydroxy-8-methoxy-3-(4-methoxyphenyl)-1-methyl-1,4-dihydro-4-quinolinone] | 89.8% | > 160 mg/kg | 63% | 70.6% | 51.6% | 68.6% | 90.2% | 77.6% | 74% | 77.4% | 79.7% | 49.7% | 82.7% |
| CCc1cc(OC)cc2c1c(=O)c(-c1ccc(OC)cc1)cn2C [CRL8393, 5-Ethyl-7-methoxy-3-(4-methoxyphenyl)-1-methyl-1,4-dihydro-4-quinolinone] | 82.8% | > 160 mg/kg | 95.3% | 97.9% | 87.3% | 68.8% | 74.7% | 93% | 89.7% | 41.8% | 84.6% | 23.7% | 89.9% |
| COc1ccc(-c2cn(C)c3cc(OC)cc(-c4ccccc4)c3c2=O)cc1 [CRL8394, 7-Methoxy-3-(4-methoxyphenyl)-1-methyl-5-phenyl-1,4-dihydro-4-quinolinone] | 68.5% | > 160 mg/kg | 92.9% | 93.5% | 83.2% | 94.3% | 73.5% | 52.9% | 78% | 37.7% | 45.1% | 38.9% | 42.2% |
| CCOC(=O)CCn1cc(-c2ccc(OC)cc2)c(=O)c2c(OC)cc(OC)cc21 [CRL8404] | 72.1% | > 160 mg/kg | 59.8% | 83.8% | 99.7% | 66.7% | 104% | 93.5% | 93.4% | 93.7% | 90.7% | 93.3% | 91.5% |
| COc1ccc(-c2cn(C)c3c(OC)ccc(-c4ccccc4)c3c2=O)cc1 [CRL8405, 8-Methoxy-3-(4-methoxyphenyl)-1-methyl-5-phenyl-1,4-dihydro-4-quinolinone] | 40.8% | > 160 mg/kg | 57.8% | 93.9% | 85.5% | 77.1% | 28.8% | 32% | 68.2% | 15.9% | 32.3% | 19.4% | 25.8% |
| COc1ccc(-c2cn(CCC#N)c3cc(OC)cc(OC)c3c2=O)cc1 [CRL8412, 3-[5,7-Dimethoxy-3-(4-methoxyphenyl)-4-oxo-1,4-dihydro-1-quinolinyl]propanenitrile] | 105% | > 160 mg/kg | 100% | 94.2% | 104% | 109% | 80.8% | 84.5% | 99.1% | 83.6% | 77% | 83.7% | 83.4% |
